Experimental data reported in patent US11591336B2 (Relay Therapeutics, Inc., priority 2017, dated 2023).
Where a name gives a salt, the structure may show the parent alone.

Biological target: SHP2 (Homo sapiens (Human), UniProt Q06124)
Experiment: SHP2 Allosteric Inhibition Assay (DiFMUP prompt fluorescence)
Type: biochemical
Conditions: 0.25 nM SHP2 activated with 0.5 μM peptide IRS1_pY1172(dPEG8)pY1222; substrate DiFMUP 100 μM; 25° C.

Row | IC50 | SMILES
1 | < 1 µM | CNC(=O)N1CCN(c2n[nH]c3nc(N4CCC(C)(CN)CC4)cnc23)c2ccccc21 [Compound 189]
2 | < 1 µM | CC1CCN(c2n[nH]c3nc(N4CCC5(CC4)CO[C@@H](C)[C@H]5N)cnc23)c2ccc(C(N)=O)nc21 (stereo in doubt) [Compound 265, (8R)-5-{6-[(3S,4S)-4-amino-3-methyl-2-oxa-8-azaspiro[4.5]decan-8-yl]-1H-pyrazolo[3,4-b]pyrazin-3-yl}-8-methyl-5,6,7,8-tetrahydro-1,5-naphthyridine-2-carboxamide]
3 | < 1 µM | C[C@@H]1OCC2(CCN(c3cnc4c(N5CC(=O)Nc6cnccc65)n[nH]c4n3)CC2)[C@@H]1N [Compound 241]
4 | < 1 µM | CCc1cccc2c1CCCN2c1n[nH]c2nc(N3CCC(C)(CN)CC3)cnc12 [Compound 85]
5 | < 1 µM | C[C@H](N)C1(C)CCN(c2cnc3c(N4CCCc5ncccc54)n[nH]c3n2)CC1 (single isomer, unassigned) [Compound 110]
6 | < 1 µM | Cc1nnc(-c2cccc3c2CCCN3c2n[nH]c3nc(N4CCC5(CC4)CO[C@@H](C)[C@H]5N)cnc23)o1 [Compound 389]
7 | ≥ 10 µM | NC(=O)C1CCCN(c2cnc3c(N4CCCc5ncccc54)n[nH]c3n2)C1 (centres unmarked) [Compound 149]
8 | < 1 µM | CCC(=O)N1CCN(c2n[nH]c3nc(N4CCC(C)(CN)CC4)cnc23)c2ccccc21 [Compound 193]
9 | ≥ 10 µM | CC1CCCCN1c1cnc2c(N3CCCc4ncccc43)n[nH]c2n1 (centres unmarked) [Compound 148]
10 | 1 to 10 µM | CC1(CN)CCN(c2cnc3c(Oc4ccc5[nH]ccc5c4)n[nH]c3n2)CC1 [Compound 505, (1-(3-((1H-indol-5-yl)oxy)-1H-pyrazolo[3,4-b]pyrazin-6-yl)-4-methylpiperidin-4-yl)methanamine]
11 | 1 to 10 µM | CC1(CN)CCN(c2cnc3c(Cc4ccccc4)n[nH]c3n2)CC1 [Compound 15, (1-(3-benzyl-1H-pyrazolo[3,4-b]pyrazin-6-yl)-4-methylpiperidin-4-yl)methanamine]
12 | < 1 µM | CNC(=O)C1CCN(c2n[nH]c3nc(N4CCC(C)(CN)CC4)cnc23)c2ccccc21 (centres unmarked) [Compound 100, 1-(6-(4-(Aminomethyl)-4-methylpiperidin-1-yl)-1H-pyrazolo[3,4-b]pyrazin-3-yl)-N-methyl-1,2,3,4-tetrahydroquinoline-4-carboxamide]
13 | < 1 µM | CC1(CN)CCN(c2cnc3c(Nc4ccnc(Cl)c4Cl)n[nH]c3n2)CC1 [Compound 500, 6-(4-(Aminomethyl)-4-methylpiperidin-1-yl)-N-(2,3-dichloropyridin-4-yl)-1H-pyrazolo[3,4-b]pyrazin-3-amine hydrochloride]
14 | < 1 µM | CNC(=O)N1CCN(c2n[nH]c3nc(N4CCC5(CC4)CO[C@@H](C)[C@H]5N)cnc23)c2cccnc21 [Compound 331, 1-{6-[(3S,4S)-4-amino-3-methyl-2-oxa-8-azaspiro[4.5]decan-8-yl]-1H-pyrazolo[3,4-b]pyrazin-3-yl}-N-methyl-1H,2H,3H,4H-pyrido[2,3-b]pyrazine-4-carboxamide]
15 | 1 to 10 µM | CC1(CN)CCN(c2cnc3c(C(C)(O)c4ccccc4)n[nH]c3n2)CC1 (centres unmarked) [Compound 19, 1-(6-(4-(aminomethyl)-4-methylpiperidin-1-yl)-1H-pyrazolo[3,4-b]pyrazin-3-yl)-1-phenylethanol]
16 | < 1 µM | CC1(N)CCN(c2cnc3c(N4CCC(=O)c5ccccc54)n[nH]c3n2)CC1 [Compound 32]
17 | < 1 µM | C[C@@H]1OCC2(CCN(c3cnc4c(N5CCCc6c([C@@H]7CC(=O)N(C)C7)cccc65)n[nH]c4n3)CC2)[C@@H]1N [Compound 523]
18 | < 1 µM | CC1(N)CCN(c2cnc3c(Sc4ncnc5ccccc45)n[nH]c3n2)CC1 [Compound 493, 4-methyl-1-(3-(quinazolin-4-ylthio)-1H-pyrazolo[3,4-b]pyrazin-6-yl)piperidin-4-amine]
19 | < 1 µM | C[C@@H]1OCC2(CCN(c3cnc4c(N5CCN([C@H]6C[C@@H](O)C6)c6cc(C#N)ccc65)n[nH]c4n3)CC2)[C@@H]1N [Compound 412]
20 | 1 to 10 µM | CC1CCN(c2n[nH]c3nc(N4CCC5(CC4)CNC(=O)C5)cnc23)c2cccnc21 (centres unmarked) [Compound 222, 8-[3-(4-methyl-1,2,3,4-tetrahydro-1,5-naphthyridin-1-yl)-1H-pyrazolo[3,4-b]pyrazin-6-yl]-2,8-diazaspiro[4.5]decan-3-one]
21 | ≥ 10 µM | CC1(N)CCN(c2cnc3c(Oc4cnccc4N)n[nH]c3n2)CC1 [Compound 507, 3-((6-(4-Amino-4-methylpiperidin-1-yl)-1H-pyrazolo[3,4-b]pyrazin-3-yl)oxy)pyridin-4-amine hydrochloride]
22 | < 1 µM | Cn1cc(-c2ccc3c(n2)OCCN3c2n[nH]c3nc(N4CCC(C)(CN)CC4)cnc23)cn1 [Compound 188]
23 | < 1 µM | C[C@@H]1OCC2(CCN(c3cnc4c(N5CCCc6c([C@H]7CCOC7)cccc65)n[nH]c4n3)CC2)[C@@H]1N [Compound 400]
24 | < 1 µM | C[C@@H]1OCC2(CCN(c3cnc4c(N5CCc6cc(C#N)ccc6C5)n[nH]c4n3)CC2)[C@@H]1N [Compound 273]

Row | IC50 | SMILES
25 | < 1 µM | c1ccc(CC2CCCN(c3cnc4c(N5CCCc6ncccc65)n[nH]c4n3)C2)cc1 (centres unmarked) [Compound 139]
26 | < 1 µM | NS(=O)(=O)C1CCCN(c2cnc3c(N4CCCc5ncccc54)n[nH]c3n2)C1 (centres unmarked) [Compound 137]
27 | < 1 µM | C[C@@H]1OCC2(CCN(c3cnc4c(N5CCS(=O)(=O)c6ccccc65)n[nH]c4n3)CC2)[C@@H]1N [Compound 341]
28 | < 1 µM | C[C@@H]1OCC2(CCN(c3cnc4c(N5CCCc6c5cccc6[S@](C)(=N)=O)n[nH]c4n3)CC2)[C@@H]1N [Compound 422]
29 | < 1 µM | CC1(CN)CCN(c2cnc3c(N4CCCc5c(C(F)F)cccc54)n[nH]c3n2)CC1 [Compound 78]
30 | < 1 µM | CC1CCN(c2n[nH]c3nc(N4CCC(C)(CN)CC4)cnc23)c2cccnc21 (single isomer, unassigned) [Compound 128]
31 | < 1 µM | CC1(CN)CCN(c2cnc3c(N4CCCc5ncccc54)n[nH]c3n2)C1 (centres unmarked) [Compound 26, (1-(3-(3,4-dihydro-1,5-naphthyridin-1(2H)-yl)-1H-pyrazolo[3,4-b]pyrazin-6-yl)-3-methylpyrrolidin-3-yl)methanamine dihydrochloride]
32 | < 1 µM | CCCn1cc(-c2ccc3c(n2)CCCN3c2n[nH]c3nc(N4CCC5(CC4)CO[C@@H](C)[C@H]5N)cnc23)cn1 [Compound 311, (3S,4S)-3-methyl-8-{3-[6-(1-propyl-1H-pyrazol-4-yl)-1,2,3,4-tetrahydro-1,5-naphthyridin-1-yl]-1H-pyrazolo[3,4-b]pyrazin-6-yl}-2-oxa-8-azaspiro[4.5]decan-4-amine]
33 | < 1 µM | Cc1coc(-c2ccc3c(n2)CCCN3c2n[nH]c3nc(N4CCC5(CC4)CO[C@@H](C)[C@H]5N)cnc23)n1 [Compound 328]
34 | < 1 µM | C[C@@H]1OCC2(CCN(c3cnc4c(N5CCN(CCO)c6cc(C#N)ccc65)n[nH]c4n3)CC2)[C@@H]1N [Compound 439]
35 | 1 to 10 µM | CC1(N)CCN(c2cnc3c(N4CCCc5c4ccnc5N)n[nH]c3n2)CC1 [Compound 42, 1-(6-(4-amino-4-methylpiperidin-1-yl)-1H-pyrazolo[3,4-b]pyrazin-3-yl)-1,2,3,4-tetrahydro-1,6-naphthyridin-5-amine]
36 | < 1 µM | Cn1cc(-c2nccc(Oc3n[nH]c4nc(N5CCC(C)(CN)CC5)cnc34)c2Cl)cn1 [Compound 506, (1-(3-((3-chloro-2-(1-methyl-1H-pyrazol-4-yl)pyridin-4-yl)oxy)-1H-pyrazolo[3,4-b]pyrazin-6-yl)-4-methylpiperidin-4-yl)methanamine]
37 | < 1 µM | CC1CCN(c2n[nH]c3nc(N4CCC(C)(CN)CC4)cnc23)c2ccc(-c3ncn[nH]3)cc21 (centres unmarked) [Compound 165]
38 | < 1 µM | C[C@@H]1OCC2(CCN(c3cnc4c(N5CCN(C)c6c(-c7cnn(C)c7)cccc65)n[nH]c4n3)CC2)[C@@H]1N [Compound 440]
39 | < 1 µM | C[C@@H]1OCC2(CCN(c3cnc4c(N5CC[C@H](C)c6nc(-c7noc(=O)[nH]7)ccc65)n[nH]c4n3)CC2)[C@@H]1N (relative stereo) [Compound 451, 3-[(8R*)-5-{6-[(3S,4S)-4-amino-3-methyl-2-oxa-8-azaspiro[4.5]decan-8-yl]-1H-pyrazolo[3,4-b]pyrazin-3-yl}-8-methyl-5,6,7,8-tetrahydro-1,5-naphthyridin-2-yl]-4,5-dihydro-1,2,4-oxadiazol-5-one]
40 | < 1 µM | CC1(CN)CCN(c2cnc3c(Nc4ccnc(Cl)c4Cl)n[nH]c3n2)C1 (centres unmarked) [Compound 499, 6-(3-(Aminomethyl)-3-methylpyrrolidin-1-yl)-N-(2,3-dichloropyridin-4-yl)-1H-pyrazolo[3,4-b]pyrazin-3-amine]
41 | < 1 µM | C[C@H]1CCN(c2n[nH]c3nc(N4CCC(C)(CN)CC4)cnc23)c2ccc(-c3nccs3)nc21 (single isomer, unassigned) [Compound 197, hydrochloride]
42 | < 1 µM | C[S+]([O-])c1cccc2c1CCCN2c1n[nH]c2nc(N3CCC(C)(CN)CC3)cnc12 (centres unmarked) [Compound 192]
43 | < 1 µM | C[C@@H]1OCC2(CCN(c3cnc4c(N5CCCc6c5cccc6N(S(C)(=O)=O)S(C)(=O)=O)n[nH]c4n3)CC2)[C@@H]1N [Compound 344, N-(1-{6-[(3S,4S)-4-amino-3-methyl-2-oxa-8-azaspiro[4.5]decan-8-yl]-1H-pyrazolo[3,4-b]pyrazin-3-yl}-1,2,3,4-tetrahydroquinolin-5-yl)-N-methanesulfonylmethanesulfonamide]
44 | < 1 µM | C[C@@H]1OCC2(CCN(c3cnc4c(N5CCCc6c(CO)cccc65)n[nH]c4n3)CC2)[C@@H]1N [Compound 431, (1-{6-[(3S,4S)-4-amino-3-methyl-2-oxa-8-azaspiro[4.5]decan-8-yl]-1H-pyrazolo[3,4-b]pyrazin-3-yl}-1,2,3,4-tetrahydroquinolin-5-yl)methanol]
45 | < 1 µM | COCCNC(=O)c1ccc2c(n1)[C@@H](C)CCN2c1n[nH]c2nc(N3CCC4(CC3)CO[C@@H](C)[C@H]4N)cnc12 [Compound 443]
46 | < 1 µM | C[C@@H]1OCC2(CCN(c3cnc4c(N5CCc6ccc(C#N)cc6C5)n[nH]c4n3)CC2)[C@@H]1N [Compound 286]
47 | < 1 µM | CC1(CN)CCN(c2cnc3c(N4CCC(C(F)(F)F)c5ccccc54)n[nH]c3n2)CC1 (centres unmarked) [Compound 106]
